Ki data for nine molecules are collected here from US6489327B1, “Tryptase inhibitors” (Max-Planck-Gesellschaft zur Fordrungder Wisenschaften, e.V., priority 1998, dated 2002).

Where a name gives a salt, the structure may show the parent alone.

In the test the target is human tryptase. The test can be described thus: Inhibition of human tryptase: apparent dissociation constant Kiapp, chromogenic substrate tos-Gly-Pro-Arg-pNA. The class given is biochemical. Conditions: apparent dissociation constant in presence of substrate; human tryptase from lung tissue, 50 μg of heparin/ml. From the text: The documented pathophysiological effects of mast cell tryptase are brought about directly by the enzymic activity of the protease. Accordingly, they are reduced or blocked by inhibitors which inhibit the enzymatic activity of the tryptase. The equilibrium dissociation constant Ki of the enzyme-inhibitor complex is a suitable measure of the affinity of a reversible inhibitor for the target protease. This Ki value can be determined by measuring the effect of the inhibitor on the tryptase-induced cleavage of a chromogenic peptide-p-nitroanilide substrate or a fluorogenic peptide-aminomethylcoumarin substrate.
The dissociation constants of the tryptase-inhibitor complexes are determined under equilibrium conditions in accordance with the general recommendations of Bieth (Bieth J G, Pathophysiological interpretation of kinetic constants of protease inhibitors, Bull. Europ. Physiopath. Resp. 16:183-195, 1980) and the methods of Sommerhoff et al. (Sommerhoff C P et al., A. Kazal-type inhibitor of human mast cell tryptase: Isolation from the medical leech Hirudo medicinalis, characterization, and sequence analysis, Biol. Chem. Hoppe-Seyler 375: 685-694, 1994).
Human tryptase is prepared in a pure state from lung tissue; the specific activity of the isolated protease, determined by means of titration, is normally 85% of the theoretical value. Constant quantities of tryptase are incubated with increasing quantities of the inhibitors in the presence of 50 μg of heparin/ml for stabilizing the protease. After the equilibrium has been established between the reaction partners, the remaining enzyme activity is determined after adding the peptide-p-nitroanilide substrate tos-Gly-Pro-Arg-pNA, the cleavage of which is monitored at 405 nm over a period of 3 min. Alternatively, the residual enzymic activity can also be determined using fluorogenic substrates. The apparent dissociation constants Kiapp (i.e. in the presence of substrate) are subsequently ascertained by nonlinear regression by fitting the enzyme rates to the general equation for reversible inhibitors (Morrison J F, Kinetics of the reversible inhibition of enzyme-catalysed reactions by tight-binding inhibitors, Biochim. Biophys. Acta 185, 269-286, 1969):
V1/V0=1−{Et+lt+Kiapp−[(Et+lt+Kiapp)^2−4Etlt]^½}/2Et
In this equation, V1 and V0 are the rates in the presence and absence of the inhibitor, respectively, and Et and lt are the concentrations of the tryptase and of the inhibitor.
The apparent dissociation constants which were determined for the compounds according to the invention are given in Table A below, in which the numbers of the compounds correspond to the numbers of the compounds in the examples.
As to `NCc1cccc(C(=O)N2CCN(C(=O)c3cccc(C(=O)N4CCN(C(=O)c5cccc(CN)c5)CC4)n3)CC2)c1` [Compound 1, Pyridine-2,6-dicarbobis[4-(3-aminomethylbenzoyl)-1-piperazide]], the Ki came to 3000 nM.

As for `CC(C)(c1ccc(OC(=O)N2CCN(C(=O)NCc3ccc(CN)cc3)CC2)cc1)c1ccc(OC(=O)N2CCN(C(=O)NCc3ccc(CN)cc3)CC2)cc1` [Compound 36, 2,2-Bis-{4-[4-(4-aminomethylbenzylcarbamoyl)-1-piperazinylcarbonyloxy]phenyl}propane dihydrochloride], the Ki came out at 28 nM.

In the case of `NCC1CCC(C(=O)NC2CCN(C(=O)c3cccc(C(=O)N4CCC(NC(=O)C5CCC(CN)CC5)CC4)n3)CC2)CC1` (stereo not drawn) [Compound 15, Pyridine-2,6-dicarbobis[4-(4-aminomethylcyclohexylcarbonylamino)-1-piperidide]], the Ki came to 3000 nM.

As for `NCc1cccc(C(=O)NC2CCN(C(=O)c3cccc(C(=O)N4CCC(NC(=O)c5cccc(CN)c5)CC4)n3)CC2)c1` [Compound 11, Pyridine-2,6-dicarbobis[4-(3-aminomethylbenzoylamino)-1-piperidide]], the Ki stood at 30 nM.

With `CC(C)(c1ccc(OCC(=O)NCc2ccc(NC(=N)N)cc2)cc1)c1ccc(OCC(=O)NCc2ccc(NC(=N)N)cc2)cc1` [Compound 31, 2,2-Bis-[4-(4-guanidinylbenzylamino)carbonylmethoxyphenyl]propane dihydroacetate], the Ki came to 200 nM.

On to `NCC1CCC(C(=O)N2CCN(C(=O)Nc3ccc(Oc4ccc(NC(=O)N5CCN(C(=O)C6CCC(CN)CC6)CC5)cc4)cc3)CC2)CC1` (stereo not drawn) [Compound 17, Bis{4-[4-(4-aminomethyl)cyclohexanoylpiperazin-1-yl]-carbonyl}-4,4′-diaminodiphenyl ether dihydrochloride], for which the Ki came out at 22000 nM.

For `NCc1cccc(C(=O)N2CCN(C(=O)Nc3ccc(Oc4ccc(NC(=O)N5CCN(C(=O)c6cccc(CN)c6)CC5)cc4)cc3)CC2)c1` [Compound 21, Bis{4-[4-(3-aminomethyl)benzoylpiperazin-1-yl]-carbonyl}-4,4′-diaminodiphenyl ether dihydrochloride], the Ki stood at 100 nM.

Regarding `NCC1CCC(C(=O)NC2CCN(C(=O)NC3CCC(CC4CCC(NC(=O)N5CCC(NC(=O)C6CCC(CN)CC6)CC5)CC4)CC3)CC2)CC1` (stereo not drawn) [Compound 23, Di{4-[4-(4-aminomethyl)cyclohexanoylamino]piperidin-1-ylcarbamoyl}cyclohexylmethane dihydrochloride], the Ki amounted to 800 nM.

In the case of `CC(C)(c1ccc(OCC(=O)NCC(=O)NCCCCN)cc1)c1ccc(OCC(=O)NCC(=O)NCCCCN)cc1` [Compound 34, 2,2-Bis-[4-(10-amino-3,6-diaza-2,5-dioxodecyloxy)-phenyl]propane dihydrochloride], the Ki is 2000 nM.
